Results reported in EP3037527A1, “Sialyltransferase without CMP-dependent sialidase activity” (F. Hoffmann-La Roche AG, priority 2014, dated 2016).

Experiments:
[1] = molecular target: T1, α-2,6-sialyltransferase from rat liver (Rattus norvegicus, UniProt P13721); conditions: each inhibitor tested at a concentration of 0.25 mM; cited from earlier work
T1 construct: host or cells: rat liver
T1 sequence (P13721 1-403): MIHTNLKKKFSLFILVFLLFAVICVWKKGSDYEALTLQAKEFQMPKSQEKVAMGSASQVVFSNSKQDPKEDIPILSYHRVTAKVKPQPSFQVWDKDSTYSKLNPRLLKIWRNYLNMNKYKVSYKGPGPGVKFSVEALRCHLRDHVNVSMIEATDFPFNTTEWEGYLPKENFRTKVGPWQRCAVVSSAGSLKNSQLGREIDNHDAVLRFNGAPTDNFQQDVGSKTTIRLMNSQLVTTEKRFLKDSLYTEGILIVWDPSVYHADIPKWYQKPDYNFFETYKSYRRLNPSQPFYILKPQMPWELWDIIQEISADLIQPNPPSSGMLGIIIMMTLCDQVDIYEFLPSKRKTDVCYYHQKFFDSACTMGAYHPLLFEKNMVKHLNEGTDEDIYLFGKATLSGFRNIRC

Δ89 hST6Gal-I = molecular target: T2, Δ89 hST6Gal-I (Homo sapiens, UniProt P15907); assay: Inhibition of sialidase activity of Δ89 hST6Gal-I by CTP; format: biochemical
T2 construct: Erythropoietin signal peptide (Epo) (N, cleaved yes); AP spacer (two amino acids) (N, cleaved yes); made in house; host or cells: HEK 293 cells (transient expression, secreted)
T2 sequence (P15907 90-406): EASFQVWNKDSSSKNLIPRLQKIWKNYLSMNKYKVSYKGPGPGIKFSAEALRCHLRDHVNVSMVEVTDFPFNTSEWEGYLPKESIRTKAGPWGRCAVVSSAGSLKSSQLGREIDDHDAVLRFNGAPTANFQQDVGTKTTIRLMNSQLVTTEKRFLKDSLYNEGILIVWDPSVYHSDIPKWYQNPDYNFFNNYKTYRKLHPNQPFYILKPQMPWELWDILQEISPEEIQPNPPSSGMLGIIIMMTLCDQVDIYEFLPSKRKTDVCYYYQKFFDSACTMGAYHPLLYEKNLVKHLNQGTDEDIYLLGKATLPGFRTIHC
Experimental: A highly galactosylated humanized monoclonal antibody IgG4 MAB was used in sialylation experiments. The reaction mixture contained IgG4 MAB (300 µg in 55 µL 35 mM sodium actetate/Tris buffer pH 7.0), the donor substrate CMP-NANA (150 µg in 50 µL water) and sialyltransferase (30 µg Δ89 hST6Gal-I in 20 mM potassium phosphate, 0.1 M NaCl, pH 6.5). The samples were incubated at 37°C for a defined time. To stop the reaction the samples were frozen at -20°C. For mass analysis 100 µL denaturing buffer (6 M guanidinium chloride) and 30 µL TCEP (= tris(2-carboxyethyl)phosphine; 0.1 mM, diluted in denaturing buffer) were added to the samples and the samples were incubated at 37°C for 1 h. The samples were buffered in electrospray medium [20% ACN (= acetonitrile), 1% FA (= […])] using pre-equilibrated illustra™ Nap5-Columns (GE-Healthcare). Samples were analyzed by electrospray ionization mass spectrometry and the content of G2+0SA, G2+1SA and G2+2SA N-glycans was determined. A Micromass Q-Tof Ultima and a Synapt G2 HDMS device (Waters UK) were used, the software used was MassLynx V 4.1. […]
The compound cytidine-5'-triphosphate (CTP) is a known potent inhibitor of sialyltransferases (Scudder PR & Chantler EN BBA 660 (1981) 136-141). […] At different times samples were taken and the content of G2+0SA, G2+1SA and G2+2SA was determined by mass spectrometry. […]

Compound	inhibition of α-2,6-sialyltransferase [1]	degradation of G2+2SA caused by the sialidase activity (Δ89 hST6Gal-I; CTP 0.67 mM, compared to inhibitor-free conditions)	G2+2SA still present (Δ89 hST6Gal-I; after 72 h of incubation, CTP added after 7 h, final concentration 0.67 mM)
Nc1ccn([C@@H]2O[C@H](CO)[C@@H](O)[C@H]2O)c(=O)n1 [Cytidine]	70%		
Nc1ccn([C@@H]2O[C@H](COP(=O)(O)OP(=O)(O)OP(=O)(O)O)[C@@H](O)[C@H]2O)c(=O)n1 [CTP, cytidine-5'-triphosphate]		significantly reduced	73%
Nc1ccn([C@@H]2O[C@H](CO)[C@@H](O)[C@H]2OP(=O)(O)O)c(=O)n1 [2'-CMP]	40%		
Nc1ccn([C@@H]2O[C@H](COP(=O)(O)O)[C@@H](O)[C@H]2O)c(=O)n1 [5'-CMP, Cytidine monophosphate]	71%		
Nc1ccn([C@@H]2O[C@H](CO)[C@@H](OP(=O)(O)O)[C@H]2O)c(=O)n1 [3'-CMP]	39%		
